Data reported in ChEMBL document CHEMBL4680119, “Battle tactics against MMP-9; discovery of novel non-hydroxamate MMP-9 inhibitors endowed with PI3K/AKT signaling attenuation and caspase 3/7 activation via Ugi bis-amide synthesis” (Eur J Med Chem, 2020).
Activity calls are given as the source filed them. No cut-off for these calls is given here.

Experiments:
[1] = Anticancer activity against […] cells assessed as reduction in cell viability by MTT assay; assay type: functional, cell-based; conditions: Mus musculus
HepG2 [2] = assay: Anticancer activity against human HepG2 cells assessed as reduction in cell viability by MTT assay; assay type: functional, cell-based
WI-38 = assay: Cytotoxicity against human WI-38 cells assessed as reduction in cell viability by MTT assay; assay type: cell-based; conditions: for IC50: Homo sapiens, WI-38; for EC100: human, wi-38
in vitro = conditions: human, WI38 cells and HepG2 cells
Description: Selectivity index, ratio of IC50 for human WI38 cells to IC50 for human HepG2 cells

MCF7 [3] = assay: cells; conditions: Homo sapiens
Description: Anticancer activity against human MCF7 cells assessed as reduction in cell viability by MTT assay

[4] = Induction of apoptosis in […] cells assessed as late apoptosis by annexinV/propidium iodide staining based by flow cytometry (reference value: 0.015+/- 0.01%); assay type: functional, Mus musculus
HepG2 [5] = assay: Induction of apoptosis in human HepG2 cells assessed as late apoptosis by annexinV/propidium iodide staining based by flow cytometry (reference value: 0.1+/- 0.001%); assay type: functional
[6] = Induction of apoptosis in […] cells assessed as total apoptosis by annexinV/propidium iodide staining based by flow cytometry (reference value: 0.495+/- 0.01%); assay type: functional, Mus musculus
HepG2 [7] = assay: Induction of apoptosis in human HepG2 cells assessed as total apoptosis by annexin/propidium iodide staining based by flow cytometry (reference value: 0.169+/- 0.02%); assay type: functional
MCF7 [8] = assay: Induction of apoptosis in human MCF-7 cells assessed as late apoptosis by annexinV/propidium iodide staining based by flow cytometry (reference value: 0.01+/- 0.001%); assay type: functional
MCF7 [9] = assay: Induction of cell morphological changes in human MCF7 cells assessed as loss in cell shape by microscopic analysis; assay type: functional, cell-based
HepG2 [10] = assay: Induction of apoptosis in human HepG2 cells assessed as increase in caspase-3/7 activation by flow cytometric analysis; assay type: functional
[11] = Induction of apoptosis in […] cells assessed as increase in caspase-3/7 activation by flow cytometric analysis; assay type: functional, Mus musculus
HepG2 [12] = assay: Induction of cell morphological changes in human HepG2 cells assessed as loss in cell shape by microscopic analysis; assay type: functional, cell-based
MCF7 [13] = assay: Induction of apoptosis in human MCF-7 cells assessed as total apoptosis by annexin V/propidium iodide staining based by flow cytometry (reference value: 0.48+/- 0.01%); assay type: functional
[14] = Induction of apoptosis in […] cells assessed as early apoptosis by annexinV/propidium iodide staining based by flow cytometry (reference value: 0.02+/- 0.01%); assay type: functional, Mus musculus
MCF7 [15] = assay: Induction of apoptosis in human MCF7 cells assessed as increase in caspase-3/7 activation by flow cytometric analysis; assay type: functional
MCF7 [16] = assay: Induction of apoptosis in human MCF-7 cells assessed as early apoptosis by annexinV/propidium iodide staining based by flow cytometry (reference value: 0.47+/- 0.01%); assay type: functional
HepG2 [17] = assay: Induction of apoptosis in human HepG2 cells assessed as early apoptosis by annexinV/propidium iodide staining based by flow cytometry (reference value: 0.78+/- 0.09%); assay type: functional
NFS-60 = assay: Induction of cell morphological changes in […] cells assessed as loss in cell shape by microscopic analysis; assay type: functional, cell-based; conditions: Mus musculus
Collagenase 3 = Collagenase 3 (Homo sapiens, UniProt P45452); assay: Inhibition of MMP-13 (unknown origin) by colorimetric assay
[18] = biological target: 72 kDa type IV collagenase (Homo sapiens, UniProt P08253); assay: Inhibition of MMP-2 (unknown origin) by colorimetric assay
[19] = biological target: Matrix metalloproteinase-9 (Homo sapiens, UniProt P14780); assay: Inhibition of MMP-9 (unknown origin) by colorimetric assay
Chain of Matrix metalloproteinase-9 (P14780 whole entry): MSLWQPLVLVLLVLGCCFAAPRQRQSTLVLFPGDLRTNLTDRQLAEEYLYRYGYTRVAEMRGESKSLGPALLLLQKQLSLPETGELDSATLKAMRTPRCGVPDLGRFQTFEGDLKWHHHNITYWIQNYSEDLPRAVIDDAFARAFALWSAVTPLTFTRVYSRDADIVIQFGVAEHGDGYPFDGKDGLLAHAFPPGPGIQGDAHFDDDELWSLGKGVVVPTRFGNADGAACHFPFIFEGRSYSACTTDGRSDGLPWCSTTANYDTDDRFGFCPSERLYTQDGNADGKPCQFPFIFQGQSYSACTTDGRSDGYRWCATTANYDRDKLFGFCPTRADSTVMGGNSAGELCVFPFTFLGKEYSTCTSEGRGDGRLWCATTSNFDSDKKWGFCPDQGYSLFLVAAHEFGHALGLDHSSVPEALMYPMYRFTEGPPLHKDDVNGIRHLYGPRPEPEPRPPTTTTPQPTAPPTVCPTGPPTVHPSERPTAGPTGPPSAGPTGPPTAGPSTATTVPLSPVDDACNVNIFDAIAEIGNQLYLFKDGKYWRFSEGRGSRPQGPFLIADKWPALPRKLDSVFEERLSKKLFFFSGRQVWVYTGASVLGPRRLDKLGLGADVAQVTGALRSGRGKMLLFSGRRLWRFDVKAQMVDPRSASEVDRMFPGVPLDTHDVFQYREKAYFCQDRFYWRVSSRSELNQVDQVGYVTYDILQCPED

Chain of 72 kDa type IV collagenase (P08253 whole entry): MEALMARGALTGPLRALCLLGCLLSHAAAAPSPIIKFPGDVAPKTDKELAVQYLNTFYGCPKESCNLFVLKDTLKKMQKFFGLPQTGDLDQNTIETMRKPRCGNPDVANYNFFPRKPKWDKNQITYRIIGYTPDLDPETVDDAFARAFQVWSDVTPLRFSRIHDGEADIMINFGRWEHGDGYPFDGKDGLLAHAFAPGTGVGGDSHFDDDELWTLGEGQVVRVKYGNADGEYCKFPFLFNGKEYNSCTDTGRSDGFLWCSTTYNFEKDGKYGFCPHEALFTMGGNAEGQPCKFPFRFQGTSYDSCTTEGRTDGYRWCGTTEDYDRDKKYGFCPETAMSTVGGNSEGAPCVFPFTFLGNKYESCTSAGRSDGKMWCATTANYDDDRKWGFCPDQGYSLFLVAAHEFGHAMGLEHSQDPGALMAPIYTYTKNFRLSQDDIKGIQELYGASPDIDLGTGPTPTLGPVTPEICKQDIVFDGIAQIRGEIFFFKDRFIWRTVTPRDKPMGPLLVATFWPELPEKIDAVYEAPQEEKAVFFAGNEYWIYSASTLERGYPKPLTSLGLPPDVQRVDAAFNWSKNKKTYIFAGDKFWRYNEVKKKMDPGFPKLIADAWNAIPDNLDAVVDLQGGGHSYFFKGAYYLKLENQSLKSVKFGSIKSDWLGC

IC50 (HepG2 [2])	IC50 (MCF7 [3])	SMILES	IC50 [1]	IC50 (WI-38)	EC100 (WI-38)	selectivity ratio (in vitro)	further results
0.18 µM	0.309 µM	CC(=O)N(c1ccccc1)C(C(=O)Nc1ccc([N+](=O)[O-])cc1)c1ccccc1 (centres undefined)	0.287 µM	0.509 µM	301 nM	2.83	
0.111 µM	0.122 µM	Cc1ccc(N(C(=O)c2ccc(Br)cc2)C(C(=O)Nc2ccc([N+](=O)[O-])cc2)c2ccccc2)cc1 (centres undefined)	0.121 µM	0.26 µM	36.1 nM	2.34	
0.435 µM	0.184 µM	O=C(Nc1ccc([N+](=O)[O-])cc1)C(c1ccccc1[N+](=O)[O-])N(C(=O)c1ccccc1[N+](=O)[O-])c1ccccc1 (centres undefined)	0.208 µM	0.36 µM	198.9 nM	0.828	
0.125 µM	0.164 µM	O=C(Nc1ccc([N+](=O)[O-])cc1)C(c1ccccc1)N(C(=O)CCC(=O)N(c1ccccc1)C(C(=O)Nc1ccc([N+](=O)[O-])cc1)c1ccccc1)c1ccccc1 (centres undefined)	0.137 µM	0.195 µM	141.4 nM	1.56	
		COc1cccc2c1C(=O)c1c(O)c3c(c(O)c1C2=O)C[C@@](O)(C(=O)CO)C[C@@H]3O[C@H]1C[C@H](N)[C@H](O)[C@H](C)O1 [DOXORUBICIN]	0.013 µM		12.1 nM		Activity [4]: 23.215%; Activity (HepG2 [5]): 25.49%; Activity [6]: 34.595%; Activity (HepG2 [7]): 36.08%; Activity (MCF7 [8]): 20.445%; Activity (MCF7 [9]): Active; Activity (HepG2 [10]): 48.09%; Activity [11]: 45.39%; Activity (HepG2 [12]): Active; Activity (MCF7 [13]): 33.974%; Activity [14]: 11.379%; Activity (MCF7 [15]): 42.94%; Activity (MCF7 [16]): 13.53%; Activity (HepG2 [17]): 10.59%; Activity (NFS-60): Active
0.0094 µM	0.008 µM	Cc1ccc(N(C(=O)c2ccc(C(F)(F)F)cc2)C(C(=O)Nc2ccc([N+](=O)[O-])cc2)c2ccccc2)cc1 (centres undefined)	0.0103 µM	0.0286 µM	14.9 nM	3.04	
0.0746 µM	0.104 µM	Cc1ccc(N(C(=O)c2ccc([N+](=O)[O-])cc2)C(C(=O)Nc2ccc([N+](=O)[O-])cc2)c2ccccc2)cc1 (centres undefined)	0.0923 µM	0.182 µM	113.6 nM	2.44	
0.0761 µM	0.0847 µM	O=C(Nc1ccc([N+](=O)[O-])cc1)C(c1ccc(Br)cc1)N(C(=O)c1ccccc1[N+](=O)[O-])c1ccccc1 (centres undefined)	0.0821 µM	0.233 µM	12.7 nM	3.06	
0.0208 µM	0.0284 µM	O=C(Nc1ccc([N+](=O)[O-])cc1)C(c1ccccc1)N(C(=O)C(F)(F)F)c1ccccc1 (centres undefined)	0.0239 µM	1.46 µM	540.3 nM	70.3	
0.107 µM	0.0558 µM	O=CN(c1ccccc1)C(C(=O)Nc1ccc([N+](=O)[O-])cc1)c1ccccc1 (centres undefined)	0.0941 µM	0.543 µM	161.5 nM	5.09	
0.0418 µM	0.0331 µM	O=C(Nc1ccc([N+](=O)[O-])cc1)C(c1ccccc1)N(C(=O)c1ccccc1[N+](=O)[O-])c1ccccc1 (centres undefined)	0.0294 µM	0.422 µM	130.2 nM	10.1	
0.152 µM	0.165 µM	NCC(=O)N(c1ccccc1)C(C(=O)Nc1ccc([N+](=O)[O-])cc1)c1ccccc1 (centres undefined)	0.168 µM	0.218 µM	84.9 nM	1.44	
0.008 µM	0.012 µM	O=C(Nc1ccc([N+](=O)[O-])cc1)C(c1ccccc1)N(C(=O)c1ccc(C(F)(F)F)cc1)c1ccccc1 (centres undefined)	0.0116 µM	0.046 µM	26.9 nM	5.75	
0.187 µM	0.203 µM	O=C(Nc1ccc([N+](=O)[O-])cc1)C(c1ccc([N+](=O)[O-])cc1)N(C(=O)c1ccc([N+](=O)[O-])cc1)c1ccccc1 (centres undefined)	0.189 µM	0.143 µM	82.4 nM	0.768	
0.0688 µM	0.0148 µM	O=C(Nc1ccc([N+](=O)[O-])cc1)C(c1ccccc1[N+](=O)[O-])N(C(=O)C(F)(F)F)c1ccccc1 (centres undefined)	0.0526 µM	0.348 µM	112.4 nM	5.06	
0.0212 µM	0.0269 µM	O=C(Nc1ccc([N+](=O)[O-])cc1)C(c1ccccc1)N(C(=O)c1ccc([N+](=O)[O-])cc1)c1ccccc1 (centres undefined)	0.0121 µM	1.2 µM	469.8 nM	56.7	
0.18 µM	0.181 µM	O=C(Nc1ccc([N+](=O)[O-])cc1)C(c1ccccc1)N(C(=O)c1ccccc1[N+](=O)[O-])c1ccc(I)cc1 (centres undefined)	0.182 µM	0.318 µM	188.3 nM	1.77	
0.0195 µM	0.0129 µM	O=C(Nc1ccc([N+](=O)[O-])cc1)C(c1ccccc1)N(C(=O)/C=C/c1ccccc1)c1ccccc1 (centres undefined)	0.013 µM	0.0291 µM	4.8 nM	1.49	
		COc1ccc(S(=O)(=O)N(CC(=O)NO)CC(C)C)cc1					IC50 (Collagenase 3): 0.131 µM; IC50 [18]: 0.069 µM; IC50 [19]: 0.0785 µM
0.138 µM	0.168 µM	O=C(Nc1ccc([N+](=O)[O-])cc1)C(c1ccccc1)N(C(=O)c1ccccc1[N+](=O)[O-])c1cccc(Br)c1 (centres undefined)	0.155 µM	0.199 µM	89.7 nM	1.44	
0.153 µM	0.295 µM	Cc1ccc(N(C(=O)c2ccccc2[N+](=O)[O-])C(C(=O)Nc2ccc([N+](=O)[O-])cc2)c2ccccc2)cc1 (centres undefined)	0.182 µM	0.499 µM	305.4 nM	3.25	
0.159 µM	0.172 µM	O=C(Nc1ccc([N+](=O)[O-])cc1)C(c1ccc([N+](=O)[O-])cc1)N(C(=O)c1ccccc1[N+](=O)[O-])c1ccccc1 (centres undefined)	0.162 µM	0.21 µM	158.3 nM	1.32	
0.0359 µM	0.018 µM	CC(C)(C)OC(=O)NCC(=O)N(c1ccccc1)C(C(=O)Nc1ccc([N+](=O)[O-])cc1)c1ccccc1 (centres undefined)	0.0319 µM	0.0429 µM	18.2 nM	1.2	
0.0309 µM	0.011 µM	O=C(Nc1ccc([N+](=O)[O-])cc1)C(c1ccccc1)N(C(=O)C(Cl)(Cl)Cl)c1ccccc1 (centres undefined)	0.0228 µM	4.56 µM	1912 nM	148	
0.0507 µM	0.064 µM	Cc1ccc(N(C(=O)c2ccc(Cl)cc2)C(C(=O)Nc2ccc([N+](=O)[O-])cc2)c2ccccc2)cc1 (centres undefined)	0.0542 µM	0.0427 µM	18.25 nM	0.842	
0.0178 µM	0.0264 µM	O=C(Nc1ccc([N+](=O)[O-])cc1)C(c1ccccc1)N(C(=O)Cc1ccccc1)c1ccccc1 (centres undefined)	0.0176 µM	0.819 µM	290.7 nM	46	
